Data reported in patent US4678787A, “4H-1-benzopyran-4-ones and their sulfur containing analogs” (Warner-Lambert Company, priority 1985, dated 1987).

How the values were obtained:
[1] = test system: exploratory locomotor activity in mice; test: Inhibition of exploratory locomotor activity, mouse IP (McLean et al. screen); assay type: in vivo; conditions: read-out: Inh. Loc. Act. (mouse IP) (ED50)
From the text: (§1) All compounds shown in the following Table 1 are active in laboratory tests that have been useful as predictors of antipsychotic efficacy (e.g., treatment of schizophrenia). Among these tests described by J. R. McLean, R. B. Parker, and L. L. Coughenour in Pharmacol. Biochem. Behav. 1978 (8) 97, is one which screens for compounds that decrease exploratory locomotor activity in mice and rats without causing ataxia. […] All known antipsychotic agents are active in this test. Our compounds are also active at doses as low as 0.35 mg/kg.

[2] = test system: exploratory locomotor activity in rats; test: Inhibition of exploratory locomotor activity, rat PO (McLean et al. screen); assay type: in vivo; conditions: read-out: Inh. Loc. Act. (rat PO) (ED50)
From the text: as §1

synthesis of dopamine = test: Dopamine synthesis in rats treated with gamma-butyrolactone (GBL); assay type: in vivo, rat

| SMILES | ED50 [1] [mg/kg] | ED50 [2] [mg/kg] | synthesis of dopamine (synthesis of dopamine) |
| --- | --- | --- | --- |
| O=c1ccoc2cc(OCCCN3CCN(c4cccc(Cl)c4)CC3)ccc12 [compound 5] | 7.7 | 8.5 |  |
| O=c1ccoc2cc(OCCCN3CCN(c4ccc(F)cc4)CC3)ccc12 [compound 11] | 7 | 7.1 |  |
| O=c1ccoc2cc(OCCCN3CCN(c4ccccc4Cl)CC3)ccc12 [compound 13, 7-[3-(4-(2-Chlorophenyl)-1-piperazinyl)propoxy]-4H-1-benzopyran-4-one] | > 30 |  |  |
| Cc1cccc(N2CCN(CCCOc3ccc4c(=O)ccoc4c3)CC2)c1C [compound 4] | 11.2 | 13.2 |  |
| Cc1ccc(N2CCN(CCCOc3ccc4c(=O)ccoc4c3)CC2)cc1 [compound 10] | 6.1 | 22.3 |  |
| O=c1ccoc2cc(OCCCCN3CCN(c4ccccc4)CC3)ccc12 [compound 20, 7-[4-(4-Phenyl-1-piperazinyl)butoxy]-4H-1-benzopyran-4-one] | 0.35 | 1.9 |  |
| O=c1ccoc2cccc(OCCCN3CCN(c4ccccc4)CC3)c12 [compound 18, 5-3-(4-phenyl-1-piperazinyl)propoxyl-4H-1-benzopyran-4-one] | 13.3 | 15.6 |  |
| Cc1ccc(N2CCN(CCCOc3ccc4c(=O)ccoc4c3)CC2)cc1C [compound 17] | 3 | 7.3 |  |
| COc1ccccc1N1CCN(CCCOc2ccc3c(=O)ccoc3c2)CC1 [compound 6] | 7.7 | > 30 |  |
| O=c1ccoc2cc(OCCCN3CCN(c4cccc(O)c4)CC3)ccc12 [compound 16] | > 30 |  |  |
| Cc1cccc(N2CCN(CCCOc3ccc4c(=O)ccoc4c3)CC2)c1 [compound 9] | 5.4 | 4.8 |  |
| O=c1ccoc2cc(OCCCN3CCN(c4ccc(Cl)cc4)CC3)ccc12 [compound 3] | 11.1 | 18.6 |  |
| O=c1ccoc2cc(OCCCN3CCC(c4ccccc4)CC3)ccc12 [compound 7, 7-[3-(4-Phenyl-1-piperidinyl)propoxy]-4H-1-benzopyran-4-one] | 14.8 | > 30 |  |
| O=c1ccoc2ccc(OCCCCN3CCN(c4ccccc4)CC3)cc12 [compound 19, 6-[4-(4-phenyl-1-piperazinyl)butoxy]-4H-1-benzopyran-4-one] | 3 | 1.5 |  |
| O=c1ccoc2cc(OCCCN3CCN(c4ccccc4)CC3)ccc12 [compound 2, 7-[3-(4-phenylpiperazinyl)propoxy]-4H-1-benzopyran-4-one] | 2.4 | 4.3 |  |
| COc1ccc(N2CCN(CCCOc3ccc4c(=O)ccoc4c3)CC2)cc1 [compound 15] | 30 | > 30 |  |
| O=c1ccoc2cc(OCCCN3CCN(c4ncccn4)CC3)ccc12 [compound 21] | 23.7 | > 30 |  |
| O=c1ccoc2cc(OCCCN3CCN(c4ccc(Cl)c(Cl)c4)CC3)ccc12 [compound 14] | 14 to 15 | 17.8 |  |
| O=c1ccoc2cc(OCCCN3CCN(c4ccccn4)CC3)ccc12 [compound 12] | 5 to 6 | 1.7 |  |
| O=c1ccoc2cc(OCCCN3CC=C(c4ccccc4)CC3)ccc12 [compound 1, 7-[3-(4-Phenyl-1,2,3,6-tetrahydro-1-pyridyl)propoxy]-4H-1-benzopyran-4-one] | 0.7 | 29.5 | inhibition of the synthesis of dopamine |
| Cc1ccccc1N1CCN(CCCOc2ccc3c(=O)ccoc3c2)CC1 [compound 8] | 2 | 30 |  |
